Laboratory results reported in article PMC6478789, “A chemical toolbox for the study of bromodomains and epigenetic signaling” (Nature Communications, 2019).

What was measured:
Assay in all cases: Methyl transferase scintillation proximity assay
Format in all cases: biochemical
Settings in all cases: average of two measurements; for inhibition at 10 µM: read-out: MTases Inhibition (%)
[1] = molecular target: T1, MLL3 (pentameric) (Homo sapiens, UniProt Q8NEZ4)
T1 construct: purchased DiscoverX BROMOscan (bromodomains); SGC in-house methyltransferase panel
Method in brief: (§1)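 Read-out is scintillation counts (CPM) from biotinylated substrate carrying a ^3H-methyl group, normalised to no-compound (100%) and no-enzyme (0%) wells. Reactions used ^3H-SAM and substrate close to each enzyme's apparent Km.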

[2] = molecular target: T2, NSD1 (Homo sapiens, UniProt Q96L73)
T2 construct: purchased DiscoverX BROMOscan (bromodomains); SGC in-house methyltransferase panel
T2 sequence (Q96L73 whole entry): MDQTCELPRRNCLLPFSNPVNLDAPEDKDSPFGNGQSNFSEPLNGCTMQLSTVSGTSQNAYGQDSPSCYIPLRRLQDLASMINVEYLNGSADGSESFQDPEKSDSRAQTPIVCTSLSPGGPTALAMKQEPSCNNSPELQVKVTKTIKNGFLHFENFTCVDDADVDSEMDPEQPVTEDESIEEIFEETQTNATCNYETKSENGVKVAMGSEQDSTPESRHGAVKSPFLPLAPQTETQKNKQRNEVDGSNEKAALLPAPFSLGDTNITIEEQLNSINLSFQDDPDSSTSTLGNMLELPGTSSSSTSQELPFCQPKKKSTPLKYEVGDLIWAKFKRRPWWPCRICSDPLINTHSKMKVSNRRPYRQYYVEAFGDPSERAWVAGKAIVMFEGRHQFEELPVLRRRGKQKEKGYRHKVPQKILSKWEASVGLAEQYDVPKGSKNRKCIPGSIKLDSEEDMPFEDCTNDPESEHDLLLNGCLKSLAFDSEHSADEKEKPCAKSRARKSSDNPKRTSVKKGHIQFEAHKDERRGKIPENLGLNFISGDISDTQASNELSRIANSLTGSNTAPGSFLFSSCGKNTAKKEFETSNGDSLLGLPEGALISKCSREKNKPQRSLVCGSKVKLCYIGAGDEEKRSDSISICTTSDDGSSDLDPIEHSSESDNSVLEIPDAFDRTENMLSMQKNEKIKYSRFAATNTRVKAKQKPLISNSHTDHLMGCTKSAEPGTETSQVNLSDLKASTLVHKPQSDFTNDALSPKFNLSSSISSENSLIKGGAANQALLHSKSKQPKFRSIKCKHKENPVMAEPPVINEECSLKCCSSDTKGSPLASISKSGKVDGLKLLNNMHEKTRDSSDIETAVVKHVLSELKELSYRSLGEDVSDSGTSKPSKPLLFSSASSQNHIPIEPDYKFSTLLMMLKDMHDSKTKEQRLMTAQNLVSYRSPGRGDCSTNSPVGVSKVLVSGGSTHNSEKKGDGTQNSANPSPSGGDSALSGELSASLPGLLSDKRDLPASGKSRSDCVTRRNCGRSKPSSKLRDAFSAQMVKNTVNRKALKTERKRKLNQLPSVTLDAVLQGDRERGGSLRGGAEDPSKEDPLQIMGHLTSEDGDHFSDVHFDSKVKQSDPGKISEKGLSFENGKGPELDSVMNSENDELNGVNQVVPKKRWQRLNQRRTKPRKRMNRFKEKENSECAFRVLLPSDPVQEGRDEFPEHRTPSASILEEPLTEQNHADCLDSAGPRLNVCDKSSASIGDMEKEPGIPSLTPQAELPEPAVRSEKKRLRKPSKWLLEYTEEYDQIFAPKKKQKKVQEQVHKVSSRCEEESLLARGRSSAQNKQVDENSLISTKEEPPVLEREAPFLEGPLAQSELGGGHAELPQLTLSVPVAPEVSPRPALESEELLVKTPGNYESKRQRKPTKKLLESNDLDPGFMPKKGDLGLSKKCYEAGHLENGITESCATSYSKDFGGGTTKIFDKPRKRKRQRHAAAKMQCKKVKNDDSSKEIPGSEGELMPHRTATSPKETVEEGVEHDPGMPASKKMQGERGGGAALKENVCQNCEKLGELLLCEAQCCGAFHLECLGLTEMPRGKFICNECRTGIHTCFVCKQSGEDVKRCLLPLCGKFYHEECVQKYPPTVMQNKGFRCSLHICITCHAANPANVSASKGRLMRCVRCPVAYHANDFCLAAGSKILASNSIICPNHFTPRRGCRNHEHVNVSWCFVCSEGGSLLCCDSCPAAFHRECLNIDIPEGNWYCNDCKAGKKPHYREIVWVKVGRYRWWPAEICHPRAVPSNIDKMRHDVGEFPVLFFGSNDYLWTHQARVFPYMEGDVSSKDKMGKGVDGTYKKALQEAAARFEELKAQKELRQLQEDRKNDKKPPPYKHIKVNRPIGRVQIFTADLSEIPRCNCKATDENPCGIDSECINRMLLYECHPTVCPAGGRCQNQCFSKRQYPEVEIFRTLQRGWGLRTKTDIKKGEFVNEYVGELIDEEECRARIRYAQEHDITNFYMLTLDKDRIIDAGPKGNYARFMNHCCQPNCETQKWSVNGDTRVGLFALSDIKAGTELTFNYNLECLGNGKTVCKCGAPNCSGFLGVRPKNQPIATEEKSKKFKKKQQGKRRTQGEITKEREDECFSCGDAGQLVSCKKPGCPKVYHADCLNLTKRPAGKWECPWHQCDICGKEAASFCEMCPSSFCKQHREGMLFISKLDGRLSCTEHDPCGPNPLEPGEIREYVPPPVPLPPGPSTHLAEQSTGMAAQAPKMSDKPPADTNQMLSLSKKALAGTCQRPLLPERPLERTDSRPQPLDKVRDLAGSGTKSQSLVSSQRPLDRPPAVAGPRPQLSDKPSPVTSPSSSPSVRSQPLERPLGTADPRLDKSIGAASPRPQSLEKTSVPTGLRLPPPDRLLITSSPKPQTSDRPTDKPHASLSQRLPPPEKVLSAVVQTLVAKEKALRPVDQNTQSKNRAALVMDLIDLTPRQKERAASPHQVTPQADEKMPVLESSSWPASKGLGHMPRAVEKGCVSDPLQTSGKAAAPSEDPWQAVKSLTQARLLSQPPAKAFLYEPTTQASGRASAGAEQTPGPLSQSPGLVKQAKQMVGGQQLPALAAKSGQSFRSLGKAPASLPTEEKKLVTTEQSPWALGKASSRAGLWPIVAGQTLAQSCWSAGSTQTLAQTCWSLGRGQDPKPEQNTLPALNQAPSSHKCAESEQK
Method in brief: as §1

[3] = molecular target: T3, PRMT4 (Homo sapiens, UniProt Q86X55)
T3 construct: purchased DiscoverX BROMOscan (bromodomains); SGC in-house methyltransferase panel
T3 sequence (Q86X55 1-608): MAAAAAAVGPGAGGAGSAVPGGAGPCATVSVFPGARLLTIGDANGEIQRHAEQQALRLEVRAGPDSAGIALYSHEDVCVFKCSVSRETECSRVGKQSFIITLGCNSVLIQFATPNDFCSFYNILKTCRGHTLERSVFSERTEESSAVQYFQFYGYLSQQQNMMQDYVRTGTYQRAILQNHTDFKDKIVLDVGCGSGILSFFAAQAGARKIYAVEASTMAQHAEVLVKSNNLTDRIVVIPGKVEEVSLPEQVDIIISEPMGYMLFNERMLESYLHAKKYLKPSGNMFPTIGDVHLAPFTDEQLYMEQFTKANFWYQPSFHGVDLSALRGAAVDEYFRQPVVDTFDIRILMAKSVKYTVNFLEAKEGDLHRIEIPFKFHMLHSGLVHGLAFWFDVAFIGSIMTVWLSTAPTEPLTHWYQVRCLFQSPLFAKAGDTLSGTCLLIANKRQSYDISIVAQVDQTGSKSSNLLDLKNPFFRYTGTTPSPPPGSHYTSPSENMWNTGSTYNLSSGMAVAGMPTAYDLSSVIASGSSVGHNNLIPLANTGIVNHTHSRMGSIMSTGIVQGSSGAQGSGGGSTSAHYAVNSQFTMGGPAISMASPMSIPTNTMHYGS
Method in brief: as §1

[4] = molecular target: T4, PRMT7 (Homo sapiens, UniProt Q9NVM4)
T4 construct: purchased DiscoverX BROMOscan (bromodomains); SGC in-house methyltransferase panel
T4 sequence (Q9NVM4 1-692): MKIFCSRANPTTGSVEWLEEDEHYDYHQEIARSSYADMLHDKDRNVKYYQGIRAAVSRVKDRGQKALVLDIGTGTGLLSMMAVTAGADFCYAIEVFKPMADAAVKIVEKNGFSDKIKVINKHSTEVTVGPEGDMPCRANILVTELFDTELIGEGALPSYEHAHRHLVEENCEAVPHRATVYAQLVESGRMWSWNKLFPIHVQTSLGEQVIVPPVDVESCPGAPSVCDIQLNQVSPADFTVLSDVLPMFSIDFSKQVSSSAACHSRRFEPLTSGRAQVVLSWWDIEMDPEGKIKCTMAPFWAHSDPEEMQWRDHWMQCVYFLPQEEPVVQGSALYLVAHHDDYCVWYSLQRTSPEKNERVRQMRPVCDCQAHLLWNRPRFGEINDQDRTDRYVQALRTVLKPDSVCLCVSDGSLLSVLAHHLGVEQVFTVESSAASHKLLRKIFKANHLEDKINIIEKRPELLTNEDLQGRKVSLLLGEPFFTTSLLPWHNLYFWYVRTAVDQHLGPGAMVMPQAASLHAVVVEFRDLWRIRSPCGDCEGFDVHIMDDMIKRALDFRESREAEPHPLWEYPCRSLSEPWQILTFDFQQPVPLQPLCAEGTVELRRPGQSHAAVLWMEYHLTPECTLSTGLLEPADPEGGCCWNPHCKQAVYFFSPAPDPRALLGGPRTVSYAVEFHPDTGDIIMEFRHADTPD
Method in brief: as §1

[5] = molecular target: T5, SMYD2 (Homo sapiens, UniProt Q9NRG4)
T5 construct: purchased DiscoverX BROMOscan (bromodomains); SGC in-house methyltransferase panel
T5 sequence (Q9NRG4 whole entry): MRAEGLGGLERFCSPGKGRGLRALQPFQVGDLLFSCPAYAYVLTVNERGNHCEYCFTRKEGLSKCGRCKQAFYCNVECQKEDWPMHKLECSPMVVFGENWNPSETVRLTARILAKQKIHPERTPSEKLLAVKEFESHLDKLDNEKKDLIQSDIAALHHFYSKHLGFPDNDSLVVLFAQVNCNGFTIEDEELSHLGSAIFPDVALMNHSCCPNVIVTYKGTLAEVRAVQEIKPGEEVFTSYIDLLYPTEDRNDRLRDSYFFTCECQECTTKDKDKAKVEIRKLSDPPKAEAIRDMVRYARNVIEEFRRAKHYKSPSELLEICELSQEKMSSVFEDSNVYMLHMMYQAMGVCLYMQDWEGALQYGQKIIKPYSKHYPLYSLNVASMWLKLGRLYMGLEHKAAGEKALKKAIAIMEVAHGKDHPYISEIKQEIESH
Method in brief: as §1

[6] = molecular target: T6, SUV39H2 (Homo sapiens, UniProt Q9H5I1)
T6 construct: purchased DiscoverX BROMOscan (bromodomains); SGC in-house methyltransferase panel
T6 sequence (Q9H5I1 whole entry): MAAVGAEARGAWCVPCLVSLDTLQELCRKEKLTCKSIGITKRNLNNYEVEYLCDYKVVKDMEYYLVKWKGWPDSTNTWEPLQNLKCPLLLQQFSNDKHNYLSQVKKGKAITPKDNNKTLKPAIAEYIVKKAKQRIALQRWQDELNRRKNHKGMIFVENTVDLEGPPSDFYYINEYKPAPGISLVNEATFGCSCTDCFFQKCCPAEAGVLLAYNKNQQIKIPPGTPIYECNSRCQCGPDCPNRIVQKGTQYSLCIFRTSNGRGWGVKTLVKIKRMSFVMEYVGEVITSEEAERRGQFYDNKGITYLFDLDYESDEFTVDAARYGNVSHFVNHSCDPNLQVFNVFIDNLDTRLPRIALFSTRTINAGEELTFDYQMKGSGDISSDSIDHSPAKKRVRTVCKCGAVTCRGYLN
Method in brief: as §1

[7] = molecular target: T7, SUV420H2 (Homo sapiens, UniProt Q86Y97)
T7 construct: purchased DiscoverX BROMOscan (bromodomains); SGC in-house methyltransferase panel
T7 sequence (Q86Y97 whole entry): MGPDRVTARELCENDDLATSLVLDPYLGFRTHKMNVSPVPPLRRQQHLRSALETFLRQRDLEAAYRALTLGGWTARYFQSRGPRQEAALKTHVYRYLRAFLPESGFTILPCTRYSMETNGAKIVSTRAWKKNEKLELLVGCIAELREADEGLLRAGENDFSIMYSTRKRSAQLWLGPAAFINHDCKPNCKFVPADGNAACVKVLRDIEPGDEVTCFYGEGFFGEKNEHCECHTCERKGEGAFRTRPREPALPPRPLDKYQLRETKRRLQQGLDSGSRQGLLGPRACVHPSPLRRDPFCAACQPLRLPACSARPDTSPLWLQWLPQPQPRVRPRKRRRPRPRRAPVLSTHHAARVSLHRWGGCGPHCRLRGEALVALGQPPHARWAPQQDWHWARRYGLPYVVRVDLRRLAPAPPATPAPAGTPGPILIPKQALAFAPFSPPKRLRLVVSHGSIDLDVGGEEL
Method in brief: as §1

SMILES | inhibition at 10 µM [1] [%] | inhibition at 10 µM [2] [%] | inhibition at 10 µM [3] [%] | inhibition at 10 µM [4] [%] | inhibition at 10 µM [5] [%] | inhibition at 10 µM [6] [%] | inhibition at 10 µM [7] [%] | MTases Inhibition (%) ([1]; 10µM) | MTases Inhibition (%) ([2]; 10µM) | MTases Inhibition (%) ([3]; 10µM) | MTases Inhibition (%) ([4]; 10µM) | MTases Inhibition (%) ([5]; 10µM) | MTases Inhibition (%) ([6]; 10µM) | MTases Inhibition (%) ([7]; 10µM)
Cc1c(NC(=O)c2cc(C(N)=O)nc3cc(F)ccc23)c(C(F)(F)F)nn1Cc1ccc(C(C)(C)C)cc1 [BAY-588] | 7 | 11 | 9 | 13 | 8 | 12 | -3 |  |  |  |  |  |  | 
COc1cc(Cl)c(C(=O)N[C@@H](CN[C@H]2CC[C@@H](N)CC2)Cc2ccc(C#N)cc2)cc1-c1ccc(CN[C@H](C)c2ccc(C)cc2)o1 [BAY-850] | 0 | 2 | 25 | 3 | 19 | -2 | 0 |  |  |  |  |  |  | 
Cc1c(NC(=O)c2cc(C(N)=O)nc3cc(F)ccc23)c(C(F)(F)F)nn1Cc1ccc(C#N)cc1 [BAY-876] | 0 | 2 | 1 | 12 | -10 | -2 | -1 |  |  |  |  |  |  | 
CN1C[C@H](Nc2cnn(C)c(=O)c2Br)C[C@H](c2ccccc2)C1 [GSK4027] | 2 | 4 | -2 | 15 | 2 | 5 | -1 |  |  |  |  |  |  | 
COc1ccccc1C(=O)Nc1cc2c(cc1N1CCNC[C@H]1C)n(C)c(=O)n2C [GSK6853] |  |  |  |  |  |  |  | 2 | 1 | 2 | 11 | -3 | 1 | -2
CO[C@H]1CNC[C@@H](OCC2CCC(F)(F)CC2)[C@@H]1Nc1ncc(-c2cncc(C)c2)c2cc(C)c(=O)[nH]c12 [GSK8814] | 0 | 19 | 1 | 11 | -2 | 3 | 0 |  |  |  |  |  |  | 
Cc1nnc2c3ccccc3c(N[C@@H](C)[C@H](c3ccccc3)N(C)C)nn12 [L-Moses] | 1 | -6 | 6 | 8 | -10 | 5 | 6 |  |  |  |  |  |  | 
CN(C)CCCOc1ccc(-c2cc(NCCCn3cccn3)nc(S(C)(=O)=O)n2)cc1 [TP-238] | -3 | 1 | 3 | 9 | -2 | 7 | 0 |  |  |  |  |  |  | 
